In the test the test system is recombinant NL-RLuc virus (NL4-3 derived HIV). As to the kind of experiment: Inhibition of HIV replication (NL-RLuc virus in MT-2 cells, luciferase readout). Type of test: cell-based. Conditions: Human immunodeficiency virus 1, NL43, MT2, 120 h. The source says:
Inhibition of HIV Replication:
A recombinant NL-RLuc proviral clone was constructed in which a section of the nef gene from NL4-3 was replaced with the Renilla Luciferase gene. This virus is fully infectious and can undergo multiple cycles of replication in cell culture. In addition, the luciferous reporter provides a simple and easy method for quantitating the extent of virus growth and consequently, the antiviral activity of test compounds. The plasmid pNLRLuc contains the proviral NL-Rluc DNA cloned into pUC 18 at the PvuII site. The NL-RLuc virus was prepared by transfection of 293T cells with the plasmid pNLRLuc. Transfections were performed using the LipofectAMINE PLUS kit from Invitrogen (Carlsbad, Calif.) according to the manufacturer and the virus generated was titered in MT-2 cells. For susceptibility analyses, the titrated virus was used to infect MT-2 cells in the presence of compound, and after 5 days of incubation, cells were processed and quantitated for virus growth by the amount of expressed luciferase. Assay media was RPMI 1640 supplemented with 10% heat inactivated fetal bovine serum (FBS), 100 units/ml penicillin G/100 units/ml streptomycin, 10 mM HEPES buffer pH 7.55 and 2 mM L-glutamine. The results from at least 2 experiments were used to calculate the EC50 values. Luciferase was quantitated using the Dual Luciferase kit from Promega (Madison, Wis.). Susceptibility of viruses to compounds was determined by incubation in the presence of serial dilutions of the compound. The 50% effective concentration (EC50) was calculated by using the exponential form of the median effect equation where (Fa)=1/[1+(ED50/drug conc.)^m] (Johnson V A, Byington R T. Infectivity Assay. In Techniques in HIV Research. ed. Aldovini A, Walker B D. 71-76. New York: Stockton Press. 1990).

Drawing on patent US10577353B2, “5-(n-[6,5]-fused bicyclic aryl tetrahydroisoquinolin-6-yl) pyridin-3-yl acetic acid derivatives as inhibitors of human immunodeficiency virus replication” (priority 2015, dated 2020), this text covers EC50 for 16 molecules.

pEC50: −log10 of the molar value.

In the case of `Cc1nc(C)c([C@H](OC(C)(C)C)C(=O)O)c(N2CCC(C)(C)CC2)c1-c1ccc2c(c1)CCN(c1nc3ncc(C(F)(F)F)cc3s1)C2` [Compound 1, (S)-2-(tert-butoxy)-2-(4-(4,4-dimethylpiperidin-1-yl)-2,6-dimethyl-5-(2-(6-(trifluoromethyl)thiazolo[4,5-b]pyridin-2-yl)-1,2,3,4-tetrahydroisoquinolin-6-yl)pyridin-3-yl)acetic acid], the pEC50 – broadly, the negative decadic logarithm of the EC50, by convention in mol/L – was 8.52.

`Cc1nc(C)c([C@H](OC(C)(C)C)C(=O)O)c(N2CCC(C)(C)CC2)c1-c1ccc2c(c1)CCN(c1nc3cccnc3s1)C2` [Compound 2, (S)-2-(tert-butoxy)-2-(4-(4,4-dimethylpiperidin-1-yl)-2,6-dimethyl-5-(2-(thiazolo[5,4-b]pyridin-2-yl)-1,2,3,4-tetrahydroisoquinolin-6-yl)pyridin-3-yl)acetic acid]: the pEC50 was 9.00.

Consider `Cc1nc(C)c([C@H](OC(C)(C)C)C(=O)O)c(N2CCC(C)(C)CC2)c1-c1ccc2c(c1)CCN(c1nc3c(Cl)cncc3s1)C2` [Compound 3, (S)-2-(tert-butoxy)-2-(5-(2-(7-chlorothiazolo[5,4-c]pyridin-2-yl)-1,2,3,4-tetrahydroisoquinolin-6-yl)-4-(4,4-dimethylpiperidin-1-yl)-2,6-dimethylpyridin-3-yl)acetic acid], for which the pEC50 was 9.00.

In the case of `Cc1nc(C)c([C@H](OC(C)(C)C)C(=O)O)c(N2CCC(C)(C)CC2)c1-c1ccc2c(c1)CCN(c1nc3ccc(Cl)cc3s1)C2` [Compound 4, (S)-2-(tert-butoxy)-2-(5-(2-(6-chlorobenzo[d]thiazol-2-yl)-1,2,3,4-tetrahydroisoquinolin-6-yl)-4-(4,4-dimethylpiperidin-1-yl)-2,6-dimethylpyridin-3-yl)acetic acid], the pEC50 was 7.72.

Turning to `Cc1nc(C)c([C@H](OC(C)(C)C)C(=O)O)c(N2CCC(C)(C)CC2)c1-c1ccc2c(c1)CCN(c1nc3cc(Cl)c(Cl)cc3s1)C2` [Compound 5, (S)-2-(tert-butoxy)-2-(5-(2-(5,6-dichlorobenzo[d]thiazol-2-yl)-1,2,3,4-tetrahydroisoquinolin-6-yl)-4-(4,4-dimethylpiperidin-1-yl)-2,6-dimethylpyridin-3-yl)acetic acid], the negative logarithm of the EC50 (pEC50) is 7.92.

`Cc1ccc2sc(N3CCc4cc(-c5c(C)nc(C)c([C@H](OC(C)(C)C)C(=O)O)c5N5CCC(C)(C)CC5)ccc4C3)nc2c1` [Compound 6, (S)-2-(tert-butoxy)-2-(4-(4,4-dimethylpiperidin-1-yl)-2,6-dimethyl-5-(2-(5-methylbenzo[d]thiazol-2-yl)-1,2,3,4-tetrahydroisoquinolin-6-yl)pyridin-3-yl)acetic acid]: the pEC50 was 7.66.

In the case of `Cc1nc(C)c([C@H](OC(C)(C)C)C(=O)O)c(N2CCC(C)(C)CC2)c1-c1ccc2c(c1)CCN(c1nc3c(Cl)cccc3s1)C2` [Compound 7, (S)-2-(tert-butoxy)-2-(5-(2-(4-chlorobenzo[d]thiazol-2-yl)-1,2,3,4-tetrahydroisoquinolin-6-yl)-4-(4,4-dimethylpiperidin-1-yl)-2,6-dimethylpyridin-3-yl)acetic acid], the pEC50 was 8.70.

On to `Cc1nc(C)c([C@H](OC(C)(C)C)C(=O)O)c(N2CCC(C)(C)CC2)c1-c1ccc2c(c1)CCN(c1nc3ccc(F)cc3s1)C2` [Compound 8, (S)-2-(tert-butoxy)-2-(4-(4,4-dimethylpiperidin-1-yl)-5-(2-(6-fluorobenzo[d]thiazol-2-yl)-1,2,3,4-tetrahydroisoquinolin-6-yl)-2,6-dimethylpyridin-3-yl)acetic acid], for which the pEC50 is 8.30.

As to `Cc1ccc2nc(N3CCc4cc(-c5c(C)nc(C)c([C@H](OC(C)(C)C)C(=O)O)c5N5CCC(C)(C)CC5)ccc4C3)sc2c1` [Compound 9, (S)-2-(tert-butoxy)-2-(4-(4,4-dimethylpiperidin-1-yl)-2,6-dimethyl-5-(2-(6-methylbenzo[d]thiazol-2-yl)-1,2,3,4-tetrahydroisoquinolin-6-yl)pyridin-3-yl)acetic acid], the pEC50 was 8.10.

For `Cc1nc(C)c([C@H](OC(C)(C)C)C(=O)O)c(N2CCC(C)(C)CC2)c1-c1ccc2c(c1)CCN(c1nc3ncccc3s1)C2` [Compound 10, (S)-2-(tert-butoxy)-2-(4-(4,4-dimethylpiperidin-1-yl)-2,6-dimethyl-5-(2-(thiazolo[4,5-b]pyridin-2-yl)-1,2,3,4-tetrahydroisoquinolin-6-yl)pyridin-3-yl)acetic acid], the pEC50 is 8.70.

For the molecule `Cc1nc(C)c([C@H](OC(C)(C)C)C(=O)O)c(N2CCC(C)(C)CC2)c1-c1ccc2c(c1)CCN(c1nc3cnccc3s1)C2` [Compound 11, (S)-2-(tert-butoxy)-2-(4-(4,4-dimethylpiperidin-1-yl)-2,6-dimethyl-5-(2-(thiazolo[4,5-c]pyridin-2-yl)-1,2,3,4-tetrahydroisoquinolin-6-yl)pyridin-3-yl)acetic acid], the pEC50 was 9.00.

With `COc1ccc2nc(N3CCc4cc(-c5c(C)nc(C)c([C@H](OC(C)(C)C)C(=O)O)c5N5CCC(C)(C)CC5)ccc4C3)sc2c1` [Compound 12, (S)-2-(tert-butoxy)-2-(4-(4,4-dimethylpiperidin-1-yl)-5-(2-(6-methoxybenzo[d]thiazol-2-yl)-1,2,3,4-tetrahydroisoquinolin-6-yl)-2,6-dimethylpyridin-3-yl)acetic acid], the negative logarithm of the EC50 (pEC50) is 8.40.

As for `Cc1nc(C)c([C@H](OC(C)(C)C)C(=O)O)c(N2CCC(C)(C)CC2)c1-c1ccc2c(c1)CCN(c1nc3ccccc3s1)C2` [Compound 13, (S)-2-(5-(2-(benzo[d]thiazol-2-yl)-1,2,3,4-tetrahydroisoquinolin-6-yl)-4-(4,4-dimethylpiperidin-1-yl)-2,6-dimethylpyridin-3-yl)-2-(tert-butoxy)acetic acid], the pEC50 was 8.15.

For the molecule `Cc1nc(C)c([C@H](OC(C)(C)C)C(=O)O)c(N2CCC(C)(C)CC2)c1-c1ccc2c(c1)CCN(c1ncnc3sccc13)C2` [Compound 14, (S)-2-(tert-butoxy)-2-(4-(4,4-dimethylpiperidin-1-yl)-2,6-dimethyl-5-(2-(thieno[2,3-d]pyrimidin-4-yl)-1,2,3,4-tetrahydroisoquinolin-6-yl)pyridin-3-yl)acetic acid], the pEC50 was 8.70.

For `Cc1nc(C)c([C@H](OC(C)(C)C)C(=O)O)c(N2CCC(C)(C)CC2)c1-c1ccc2c(c1)CCN(c1ncnc3c(C)csc13)C2` [Compound 15, (S)-2-(tert-butoxy)-2-(4-(4,4-dimethylpiperidin-1-yl)-2,6-dimethyl-5-(2-(7-methylthieno[3,2-d]pyrimidin-4-yl)-1,2,3,4-tetrahydroisoquinolin-6-yl)pyridin-3-yl)acetic acid], the pEC50 is 8.70.

As to `Cc1nc(C)c([C@H](OC(C)(C)C)C(=O)O)c(N2CCC(C)(C)CC2)c1-c1ccc2c(c1)CCN(c1ncnc3c1cnn3C)C2` [Compound 16, (S)-2-(tert-butoxy)-2-(4-(4,4-dimethylpiperidin-1-yl)-2,6-dimethyl-5-(2-(1-methyl-1H-pyrazolo[3,4-d]pyrimidin-4-yl)-1,2,3,4-tetrahydroisoquinolin-6-yl)pyridin-3-yl)acetic acid], the pEC50 is 8.70.
